The record followed here is US7910600B2, “Therapeutic kinase modulators” (Cylene Pharmaceuticals, Inc., priority 2007, dated 2011).

One test concerns the target T1, recombinant human CK2 (Homo sapiens, UniProt P68400).
T1 construct: purchased Upstate
Description: Cell-free CK2 assay. Format: biochemical. The conditions noted are these: for inhibition at 0.5 µM: read-out: CK2: % inh 500 nM. Here is the method: Modulatory activity of compounds described herein is assessed in vitro in cell-free CK2 assays. These assays are described hereafter.
Test compounds in aqueous solution are added at a volume of 10 microliters, to a reaction mixture comprising 10 microliters Assay Dilution Buffer (ADB; 20mM MOPS, pH 7.2, 25 mM beta-glycerolphosphate, 5 mM EGTA, 1 mM sodium orthovanadate and 1 mM dithiothreitol), 10 microliters of substrate peptide (RRRDDDSDDD (SEQ ID NO:4), dissolved in ADB at a concentration of 1 mM), 10 microliters of recombinant human CK2 (25 ng dissolved in ADB; Upstate). Reactions are initiated by the addition of 10 microliters of ATP Solution (90% 75 mM MgC12, 75 micromolar ATP dissolved in ADB; 10% [γ-^33P]ATP (stock 1 mCi/100 μl; 3000 Ci/mmol (Perkin Elmer) and maintained for 10 minutes at 30 degrees C. The reactions are quenched with 100 microliters of 0.75% phosphoric acid, then transferred to and filtered through a phosphocellulose filter plate (Millipore). After washing each well 5 times with 0.75% phosphoric acid, the plate is dried under vacuum for 5 min and, following the addition of 15 ul of scintillation fluid to each well, the residual radioactivity is measured using a Wallac […].

In test [1] the test system is HCT-116 human colorectal carcinoma cells. Description: Cell proliferation assay (Alamar Blue), HCT-116. In kind it is cell-based. To be noted: HCT-116 cell line. As to the method:
(§1) A representative cell-proliferation assay protocol using Alamar Blue dye (stored at 4° C., use 20 ul per well) is described hereafter.
(§2) 96-Well Plate Setup and Compound Treatment
(§3) • a. Split and trypsinize cells. • b. Count cells using hemocytometer. • c. Plate 4,000-5,000 cells per well in 100 μl of medium and seed into a 96-well plate according to the following plate layout. Add cell culture medium only to wells B10 to B12. Wells B1 to B9 have cells but no compound added.
(§4) • d. Add 100 μl of 2× drug dilution to each well in a concentration shown in the plate layout above. At the same time, add 100 μl of media into the control wells (wells B10 to B12). Total volume is 200 μl/well. • e. Incubate four (4) days at 37° C., 5% CO2 in a humidified incubator. • f. Add 20 μl Alamar Blue reagent to each well. • g. Incubate for four (4) hours at 37° C., 5% CO2 in a humidified incubator. • h. Record fluorescence at an excitation wavelength of 544 nm and emission wavelength of 590 nm using a microplate reader.
(§5) In the assays, cells are cultured with a test compound for approximately four days, the dye is then added to the cells and fluorescence of […] dye is detected after approximately four hours. Different types of cells can be utilized in the assays (e.g., HCT-116 human colorectal carcinoma cells, PC-3 human prostatic cancer cells and MiaPaca human pancreatic carcinoma cells).
For orientation: Resazurin is reduced to fluorescent resorufin, in cell work by metabolically active cells.

Another test has as its system K562. The test is described as follows: Cell proliferation assay (Alamar Blue), K562. The conditions noted are these: Homo sapiens; K562 cell line. In kind it is cell-based. Here is the method:
as §1, §2, §3, §4, §5

Test [2] deals with MiaPaca human pancreatic carcinoma cells. The test is described as follows: Cell proliferation assay (Alamar Blue), MiaPaCa. To be noted: MIA PaCa-2, MiaPaCa cell line. In kind it is cell-based. Here is the method: as §1, §2, §3, §4, §5
Test [3] has as its system PC-3 human prostatic cancer cells. The test is described as follows: Cell proliferation assay (Alamar Blue), PC3. In kind it is cell-based. To be noted: PC3 cell line. As to the method:
as §1, §2, §3, §4, §5

For another test, the system named is BxPC3. Description: Cell proliferation assay (Alamar Blue), BxPC3. The conditions noted are these: Homo sapiens, BXPC-3; BxPC3 cell line; read-out: Bx-PC3. Format: cell-based. As to the method:
as §1, §2, §3, §4, §5

The subject of the next test is MDA-MB231. Description: Cell proliferation assay (Alamar Blue), MDA-MB231. In kind it is cell-based. To be noted: Homo sapiens, MDA-MB-231; MDA-MB231 cell line. Here is the method: as §1, §2, §3, §4, §5
Another test relates to PanC1. The test is described as follows: Cell proliferation assay (Alamar Blue), PanC1. In kind it is cell-based. To be noted: Homo sapiens, PANC-1; PanC1 cell line. As to the method: as §1, §2, §3, §4, §5
A further test deals with Jurkat. The test is described as follows: Cell proliferation assay (Alamar Blue), Jurkat. Format: cell-based. The conditions noted are these: Homo sapiens; Jurkat cell line. Here is the method:
as §1, §2, §3, §4, §5

The next test concerns MV-4-11. The test is described as follows: Cell proliferation assay (Alamar Blue), MV-4-11. Format: cell-based. To be noted: Homo sapiens, MV4-11; MV-4-11 cell line. As to the method: as §1, §2, §3, §4, §5

pIC50: −log10 of the molar value.

T1 sequence (P68400 whole entry): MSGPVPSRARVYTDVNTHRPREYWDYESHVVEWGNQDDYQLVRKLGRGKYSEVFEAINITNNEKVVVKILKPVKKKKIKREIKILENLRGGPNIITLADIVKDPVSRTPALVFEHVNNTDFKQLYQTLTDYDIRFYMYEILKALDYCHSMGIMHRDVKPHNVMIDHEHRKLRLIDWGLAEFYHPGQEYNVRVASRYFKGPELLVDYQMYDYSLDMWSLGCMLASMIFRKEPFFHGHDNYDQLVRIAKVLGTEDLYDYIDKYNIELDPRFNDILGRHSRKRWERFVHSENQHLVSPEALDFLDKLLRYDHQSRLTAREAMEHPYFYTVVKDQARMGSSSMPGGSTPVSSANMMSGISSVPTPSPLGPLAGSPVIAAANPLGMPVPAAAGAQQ
T1 sequence (P67870 whole entry partner): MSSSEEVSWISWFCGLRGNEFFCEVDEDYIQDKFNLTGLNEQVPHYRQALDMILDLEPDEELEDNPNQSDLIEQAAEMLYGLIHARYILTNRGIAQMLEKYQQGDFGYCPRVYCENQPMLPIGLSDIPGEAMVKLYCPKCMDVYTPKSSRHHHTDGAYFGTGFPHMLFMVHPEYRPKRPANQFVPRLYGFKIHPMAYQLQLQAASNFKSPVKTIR

For `Clc1cccc(-c2nc3ccccc3c3cnccc23)c1`, at recombinant human CK2, the inhibition at 0.5 µM was -17%. Further, the pIC50 (in test [1]; in the test on K562; in [2]; in test [3]) was below 5.00 throughout.

Turning to `O=C(O)c1ccc2c(c1)nc(-c1ccccc1)c1nc(NC3CC3)ncc12` [3-(cyclopropylamino)-5-phenylpyrimido[4,5-c]quinoline-8-carboxylic acid], the pIC50 at recombinant human CK2 is 7.03; in test [1] it was 5.54; in test [2] it was 5.43; in the test with BxPC3, 5.35; in the test with MDA-MB231 it was 4.95; in the test with PanC1 it was 4.80. Further, the pIC50 in the test with Jurkat was 5.82. Also, the inhibition at 0.5 µM on recombinant human CK2 turned out to be 99%.

As for `O=C(O)c1ccc2c(c1)nc(-c1ccc(Cl)cc1)c1ccncc12`, the pIC50 at recombinant human CK2 is 8.15; in test [1] it was below 5.00; in the test with K562, below 5.00; with MV-4-11 it was below 5.00; in test [2], below 5.00; in the test with BxPC3, below 5.00. For the same compound, the pIC50 (in the test with MDA-MB231; in test [3]) was below 5.00 throughout. Further, the inhibition at 0.5 µM at recombinant human CK2 came out at 98%.

As to `NC(=O)c1ccc2c(c1)nc(-c1ccccc1)c1nc(NC3CC3)ncc12`, at recombinant human CK2, the inhibition at 0.5 µM was determined as 45%. Also, the pIC50 in test [1] was 5.96; in test [2], 5.28; with BxPC3, 5.96; with MDA-MB231 it was 4.45; in the test with PanC1, 4.59; with Jurkat, 6.30.

With `COC(=O)c1ccc2c(c1)nc(-c1cnn(C)c1)c1nc(SC)ncc12` [Methyl 5-(1-methyl-1H-pyrazol-4-yl)-3-(methylthio)pyrimido[4,5-c]quinoline-8-carboxylate], at recombinant human CK2, the inhibition at 0.5 µM is 68%. The pIC50 in [1] is below 5.00; in [2], below 4.20; in the test on BxPC3, below 4.20; in the test with MDA-MB231 it was below 4.20; in the test on PanC1, below 4.20; with Jurkat, 4.32.

Consider `Clc1ccc(-c2nc3ccccc3c3cnccc23)cc1`, for which, on recombinant human CK2, the inhibition at 0.5 µM is -5%. The pIC50 (in test [1]; in the test on K562; in test [2]; in test [3]) was below 5.00 in each case.

`COC(=O)c1ccc2c(c1)nc(-c1ccccc1)c1nc(S(C)(=O)=O)ncc12` [methyl 3-(methylsulfonyl)-5-phenylpyrimido[4,5-c]quinoline-8-carboxylate]: on recombinant human CK2, the inhibition at 0.5 µM was -18%. The pIC50 is 5.57 in test [1]; 5.26 in test [2]; 4.97 in the test with BxPC3; 5.19 in the test with MDA-MB231; 5.01 in the test on PanC1; 6.15 in the test on Jurkat.

As for `O=C(O)c1ccc2c(c1)nc(-c1cccc(Cl)c1)c1ccncc12`, the pIC50 is 7.52 at recombinant human CK2; below 5.00 in [1]; 6.05 in the test with K562; below 5.00 with MV-4-11; below 5.00 in [2]; below 5.00 in the test on BxPC3. The pIC50 (with MDA-MB231; in [3]) was below 5.00 throughout. In addition, the inhibition at 0.5 µM at recombinant human CK2 turned out to be 95%.

Regarding `O=C(O)c1ccc2c(c1)nc(-c1cccc(F)c1)c1ccncc12`, the pIC50 at recombinant human CK2 was 7.54; in test [1], below 5.00; in the test with K562 it was below 5.00; in the test with MV-4-11, 5.85; in test [2], below 5.00; in the test with MDA-MB231, 6.70. In addition, the pIC50 in test [3] is below 5.00. Moreover, on recombinant human CK2, the inhibition at 0.5 µM is 98%.

As for `Cc1ccccc1-c1nc2cc(C(=O)O)ccc2c2cnccc12`, on recombinant human CK2, the inhibition at 0.5 µM was determined as 76%. For the same compound, the pIC50 (in test [1]; with K562; in [2]; in test [3]) was below 5.00 throughout.

For the compound `COC(=O)c1ccc2c(c1)nc(-c1cnn(C)c1)c1nc(NC3CC3)ncc12`, at recombinant human CK2, the inhibition at 0.5 µM was 10%. For the same compound, the pIC50 in test [1] was below 5.00; in test [2], 6.22; in the test on BxPC3 it was below 4.52; in the test with MDA-MB231, 4.76; in the test on PanC1, 5.85; with Jurkat, below 4.52.

For `O=C(O)c1ccc2c(c1)nc(-c1ccc(F)cc1)c1ccncc12`, the pIC50 at recombinant human CK2 is 7.48; in [1] it was below 5.00; with K562, 6.00; in the test on MV-4-11, 5.15; in [2] it was below 4.52; in test [3], below 5.00. For the same compound, the inhibition at 0.5 µM on recombinant human CK2 worked out at 98%.

As for `COc1cccc(F)c1-c1nc2cc(C(=O)O)ccc2c2cnccc12`, at recombinant human CK2, the inhibition at 0.5 µM is 68%. Moreover, the pIC50 (in [1]; in the test with K562; in [2]; in [3]) was below 5.00 throughout.

As for `CN1CCCCC1CNC(=O)c1ccc2c(c1)nc(-c1cccc(N)c1)c1ccncc12` (centres unmarked), the inhibition at 0.5 µM at recombinant human CK2 came out at 9%. The pIC50 (in test [1]; in the test with K562; in the test on MV-4-11; in [2]; in test [3]) was below 5.00 each time.

As for `Cc1ccccc1-c1nc2ccccc2c2cnccc12`, the inhibition at 0.5 µM on recombinant human CK2 was -15%. Also, the pIC50 (in test [1]; in the test on K562; in test [2]; in [3]) was below 5.00 throughout.

For `CN1CCN(C(=O)c2ccc3c(c2)nc(-c2cccc(N)c2)c2ccncc23)CC1`, the inhibition at 0.5 µM on recombinant human CK2 was determined as 19%. Also, the pIC50 (in test [1]; in the test with K562; in the test on MV-4-11; in [2]; in test [3]) was below 5.00 throughout.

On to `Cn1cc(-c2nc3cc(C(=O)NC4CC4)ccc3c3cnc(NC4CC4)nc23)cn1`, for which the inhibition at 0.5 µM on recombinant human CK2 was 0%. For the same compound, the pIC50 in [1] was 5.37; in [2], 5.55; in the test with BxPC3 it was 5.23; with MDA-MB231 it was below 4.52; in the test with PanC1, below 4.52; in the test with Jurkat it was 5.80.

With `O=C(O)c1ccc2c(c1)nc(-c1ccccc1F)c1ccncc12`, the pIC50 at recombinant human CK2 was 6.97; in test [1], below 5.00; in the test on K562, below 5.00; with MV-4-11 it was below 5.00; in test [2] it was below 5.00; in [3], 5.39. On recombinant human CK2, the inhibition at 0.5 µM came out at 97%.

With `O=C(NC1CC1)c1ccc2c(c1)nc(-c1ccccc1)c1nc(NC3CC3)ncc12` [N-cyclopropyl-3-(cyclopropylamino)-5-phenylpyrimido[4,5-c]quinoline-8-carboxamide], the inhibition at 0.5 µM at recombinant human CK2 was -4%. Further, the pIC50 in test [1] is 6.10; in test [2], 4.23; in the test with BxPC3 it was 5.92; with MDA-MB231, below 4.20; in the test on PanC1 it was 4.52; in the test with Jurkat, 6.22.

On to `O=C(O)c1ccc2c(c1)nc(-c1ccsc1)c1ccncc12`, for which the pIC50 was 8.40 at recombinant human CK2; below 4.52 in test [1]; 6.70 in the test with K562; 4.88 in the test with MV-4-11; below 5.00 in [2]; below 5.00 in the test with BxPC3. Further, the pIC50 (in the test on MDA-MB231; in test [3]) was below 5.00 each time. Also, at recombinant human CK2, the inhibition at 0.5 µM was determined as 98%.

Take `COC(=O)c1ccc2c(c1)nc(-c1ccccc1)c1nc(NC3CC3)ncc12` [methyl 3-(cyclopropylamino)-5-phenylpyrimido[4,5-c]quinoline-8-carboxylate]: the inhibition at 0.5 µM on recombinant human CK2 was -27%. In addition, the pIC50 in test [1] is 5.59; in test [2], 5.49; in the test on BxPC3, 5.72; in the test with MDA-MB231 it was 5.47; with PanC1 it was 5.06; with Jurkat, 5.96.
